# Results reported in article PMC9511777, “Novel lipid-coated mesoporous silica nanoparticles loaded with thymoquinone formulation to increase its bioavailability in the brain and organs of Wistar rats” (BMC Pharmacology & Toxicology, 2022).
# Read-outs that look alike come from different tables or passages of the source.
# Experiments:
# [1] = Distribution of TQ in brain areas, liver and kidney (HPLC); type: in vivo, Wistar rats; details: male, Wistar, rat, oral, 60 mg/kg TQ, read-out: TQ distribution, Mean ± SEM
# Procedure: Twenty-eight male Wistar rats with an average weight of 110±10 gm were allocated into four random groups (seven rats/group). Animals were kept in fixed housing circumstances (12 h light/dark cycles) and temperature (25 °C) for three days to acclimatize. The Institutional Animal Ethics Committee approved the protocol for the in vivo study (CU-I-F-28-21).
# (§1) The four groups received oral dose day by day for 14 days as follows: The first group: the negative control group, received 1:9; DMSO: Saline. The second group: the free TQ group, received a 60 mg/kg free TQ (3). The third group: The MSNs group received a 60 mg/kg MSNs dose. The fourth group: the LB-MSNs group, received a dose of 60 mg/kg MSNs loaded with TQ and coated with lipids. On day 14, rats were decapitated, and rat brains, liver, and kidneys were dissected for histopathological examination and oxidative stress measurements. The duration time of our experiment and the TQ doses were determined following Sheikhbahaei et al. (2016). 's work.
# (§2) On the 14th day of the experiment, all the experimental groups were sacrificed by decapitation. The brains of each animal were taken away after they were removed and put in an ice-cold Petri dish. The brain was sectioned into different regions (hippocampus, cortex, hypothalamus, thalamus, medulla, midbrain, cerebellum, and striatum). Each brain region was weighed and frozen until used in further measurements. Heidolph DIAX 900 was used to homogenize the brain sections weighed in 4 ml of ice-cold PBS (50 mM, pH 7.4). Then, for 15 minutes, the homogenates were separated using a high-speed cooling centrifuge. The centrifuge was set to 8000 RPM and 4°C (VS-18000 M small size, high speed, refrigerated centrifuge, Korea). The pure supernatant was collected and stored at -20°C for further analysis.
# TQ was chromatographically identified at room temperature 25 °C. The mobile phase was 50: 30: **20 v/v/v methanol, acetonitrile, and potassium dihydrogen phosphate buffer (20 mM, pH 4.5), isocratically injected at a flow rate of 1 ml/min using the HPLC apparatus's C18 column (25 cm4.6 mm) (YL 9100 HPLC, USA).
# [2] = tested on: Catalase activity; experiment: Catalase activity in tissues (Aebi's protocol); type: in vivo, Wistar rats; details: oral 60 mg/kg, 14 days
# Procedure: as §1
# (§3) On the 14th day of the experiment, all the experimental groups were sacrificed by decapitation. […]
# The catalase activity was determined according to Aebi’s protocol (spectrophotometry) using Biodiagnostic Kit No. CA 25 1, Egypt. […] The chromophore's absorbance at 510 nm is measured using a spectrophotometer (Jenway UV-6420; Barloworld Scientific, Essex, UK).
# (§4) We used The Statistical Package for Social Sciences (SPSS) software (version 19) to analyze the data. The mean and standard error of the results were calculated. […] The percentage difference, which reflects the percent change in value compared to the control, was also assessed. %Difference%D=treatedvalue-controlvalue/controlvalue×100%
# [3] = tested on: Nitric oxide (NO) levels; experiment: Nitric oxide (NO) levels in tissues (Griess reaction); type: in vivo, Wistar rats; details: all the tested organs; oral 60 mg/kg, 14 days
# Procedure: as §1, §3
# The nitric oxide assay was performed according to the Griess reaction method using biodiagnostic kit No. 25 33, Egypt. […] Absorption was measured using a spectrophotometer at […] (Jenway UV-6420; Barloworld Scientific, Essex, UK). NO levels were quantified as nitrite using the Griess reagent, according to Moshage et al..
# as §4
# [4] = tested on: Wistar rats; experiment: Histopathological examination of the kidney, liver, and different brain areas (H & E); type: in vivo; details: H & E x400, oral 60 mg/kg, 14 days
# Procedure: as §1
# Each group's brain, liver, and kidney were fixed in a formalin buffered solution (10%) for twenty-four hours. Fixed specimens were rinsed with tap water before dehydrating with methyl, ethyl, and absolute dilutions. Specimens were cleaned in xylene and embedded in paraffin wax for 24 hours in a 56°C hot air oven. Microtome blocks of Paraffin bees wax tissue were sectioned at 8 microns on a slide, collected on glass slides, and removed paraffin stained with hematoxylin and eosin (H & E) stains. A light microscope was used to examine the slides (Zeiss, Germany).
# [5] = tested on: Lipid peroxidation (MDA) levels; experiment: Lipid peroxidation (MDA) levels in tissues; type: in vivo, Wistar rats; details: oral 60 mg/kg, 14 days
# Procedure: as §1, §2
# MDA was determined as a marker of lipid peroxidation using a method developed by Begona Ruiz-Larrea et al., which entailed detecting the thiobarbituric acid-reactive molecules. […] A spectrophotometer was used to measure the absorbance of the generated compound at 532 nm (Jenway UV-6420; Barloworld Scientific, Essex, UK).
# as §4
# [6] = tested on: NO and MDA metabolites; design: method as in PMID 22309035; details: rat brain; 2, 5, or 10 mg/kg doses; cited from earlier work
# [7] = tested on: Reduced glutathione (GSH) levels; experiment: Reduced glutathione (GSH) levels in tissues (Ellman's method); type: in vivo, Wistar rats; details: oral 60 mg/kg, 14 days
# Procedure: as §1, §3
# According to Ellman's method, the determination of Reduced Glutathione concentration (GSH) required using Biodiagnostic kit No. GR 25 11, Egypt. Ellman's method measured reduced glutathione levels, as the sulfhydryl group of […] lowers Ellman's reagent and produces 2-Nitro-smercaptobenzoic acid. The yellow-colored nitro-mercaptobenzoic acid was detected at 412 nm using a spectrophotometer (Jenway UV-6420; Barloworld Scientific, Essex, UK).
# We used The Statistical Package for Social Sciences (SPSS) software (version 19) to analyze the data. The mean and standard error of the results were calculated. […]
smiles,measurement,setting,value
"CC1=CC(=O)C(C(C)C)=CC1=O [TQ, 2-isopropyl-5-methyl-1,4-benzoquinone]",concentration at 14 days,[1]; Cerebellum,48 ± 18 ng/g
same,concentration at 14 days,[1]; Cortex,25 ± 4 ng/g
same,concentration at 14 days,[1]; Hippocampus,2 ± 0.3 ng/g
same,concentration at 14 days,[1]; Hypothalamus,10 ± 0.3 ng/g
same,concentration at 14 days,[1]; Kidney,112 ± 19 ng/g
same,concentration at 14 days,[1]; Liver,201 ± 24 ng/g
same,concentration at 14 days,[1]; Medulla,6 ± 1 ng/g
same,concentration at 14 days,[1]; Midbrain,7 ± 1 ng/g
same,concentration at 14 days,[1]; Striatum,13 ± 1 ng/g
same,concentration at 14 days,[1]; Thalamus,4 ± 1 ng/g
same,catalase activity change compared with negative control group,"[2]; all investigated areas except cerebellum, brain, kidney, hippocampus",no significant differences
same,"catalase activity, significant difference compared with negative control (direction not given)",[2]; cerebellum,55.4%
same,NO level change compared with negative control group,[3],nonsignificant changes
same,renal histopathological alterations,[4],mild histopathological alterations
same,MDA concentration change compared with control,[5]; all tested areas except the medulla,nonsignificant changes
same,"MDA level, significant increase compared with control",[5]; liver,67.01%
same,"MDA level, significant decrease compared with control",[5]; medulla,60.95%
same,NO and MDA metabolites in the hippocampus,[6],decreased
same,GSH level change compared with negative control group,[7]; all investigated areas except the cerebellum,no significant changes
same,"GSH level, significant increase compared with control",[7]; cerebellum,181.98%
